# Laboratory results from patent US10752609B2, “GSK-3 inhibitors” (priority 2016, dated 2020).
# Like-named read-outs stand apart in the source and are kept apart here.
# Assays:
# GSK3β = GSK3β (Homo sapiens, UniProt P49841); assay: GSK3β kinase assay (Caliper LabChip3000 mobility shift, fluoresceinated peptide substrate); assay type: biochemical
# Protocol: The kinase assay was performed in V-bottom 384-well plates. […] The reaction was incubated at room temperature for 20 hours and terminated by adding 45 μl of 35 mM EDTA to each sample. The reaction mixture was analyzed on the Caliper LabChip3000 (Caliper, Hopkinton, Mass.) by electrophoretic separation of the unphosphorylated substrate and phosphorylated product. […] Compounds were dissolved at 10 mM in dimethylsulfoxide (DMSO) and evaluated at eleven concentrations. IC50 values were derived by non-linear regression analysis.
# pTau = pTau assay (no method described); assay type: cell-based
# GSK3α = GSK3α (Homo sapiens, UniProt P49840); assay: GSK3α kinase assay (Caliper LabChip3000 mobility shift, fluoresceinated peptide substrate)
# Sequence of GSK3α (P49840 whole entry, species assumed): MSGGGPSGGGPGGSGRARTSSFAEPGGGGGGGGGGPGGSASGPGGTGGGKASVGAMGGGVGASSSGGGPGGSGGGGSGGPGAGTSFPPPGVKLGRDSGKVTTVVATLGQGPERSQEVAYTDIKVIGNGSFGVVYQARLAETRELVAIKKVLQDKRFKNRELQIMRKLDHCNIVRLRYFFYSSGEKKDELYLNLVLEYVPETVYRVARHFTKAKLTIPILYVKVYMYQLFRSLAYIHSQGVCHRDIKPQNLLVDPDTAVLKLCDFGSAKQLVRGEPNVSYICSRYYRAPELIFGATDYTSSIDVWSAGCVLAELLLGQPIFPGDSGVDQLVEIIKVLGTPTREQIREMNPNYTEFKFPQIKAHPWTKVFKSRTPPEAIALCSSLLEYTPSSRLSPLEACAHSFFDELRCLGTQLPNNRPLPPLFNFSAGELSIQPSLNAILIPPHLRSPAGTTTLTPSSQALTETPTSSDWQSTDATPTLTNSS
# [1] = 250 pM enzyme, 20 uM ATP, 1.5 uM peptide, 20 hours room temperature, first value of cell GSK3β/GSK3α, read-out: GSK3β (nM), IC50
# Sequence of GSK3β (P49841 whole entry, species assumed): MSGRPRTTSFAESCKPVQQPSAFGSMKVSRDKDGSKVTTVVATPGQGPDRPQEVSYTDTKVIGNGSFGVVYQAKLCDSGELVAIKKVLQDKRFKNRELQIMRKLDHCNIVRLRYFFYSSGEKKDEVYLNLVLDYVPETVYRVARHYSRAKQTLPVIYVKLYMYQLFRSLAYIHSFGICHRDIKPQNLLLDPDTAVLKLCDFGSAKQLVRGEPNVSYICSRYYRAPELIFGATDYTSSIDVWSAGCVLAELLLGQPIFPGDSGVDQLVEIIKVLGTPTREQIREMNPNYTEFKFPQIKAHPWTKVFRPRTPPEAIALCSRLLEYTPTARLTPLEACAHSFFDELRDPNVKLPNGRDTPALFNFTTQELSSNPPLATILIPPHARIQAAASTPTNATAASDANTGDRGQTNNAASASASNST
Compound,IC50 (GSK3β; [1]),IC50 (pTau),IC50 (GSK3α),IC50 (GSK3β)
"COc1ccc(Nc2nccc(C(=O)Nc3cncnc3Nc3ccc(OC)cc3)n2)cc1 [Example 78, 2-Amino-N-(6-methylpyridin-3-yl)pyrimidine-4-carboxamide 2-((4-methoxyphenyl)amino)-N-(4-((4-methoxyphenyl)amino)pyrimidin-5-yl)pyrimidine-4-carboxamide]",28 nM,2900 nM,15 nM,–
"O=C(Nc1cnc(F)cc1N1CCC(F)(F)CC1)c1ccnc(Nc2ccc(Cl)cc2)n1 [Example 178, 2-((4-Chlorophenyl)amino)-N-(4-(4,4-difluoropiperidin-1-yl)-6-fluoropyridin-3-yl)pyrimidine-4-carboxamide]",0.67 nM,69 nM,0.57 nM,–
"COc1ccc(Nc2nccc(C(=O)Nc3cnccc3-c3ccccc3)n2)cc1F [Example 19, 2-((3-Fluoro-4-methoxyphenyl)amino)-N-(4-phenylpyridin-3-yl)pyrimidine-4-carboxamide]",0.18 nM,17 nM,0.17 nM,–
"O=C(Nc1cnccc1OCC(F)(F)F)c1ccnc(NCC2CC2)n1 [Example 118, 2-((Cyclopropylmethyl)amino)-N-(4-(2,2,2-trifluoroethoxy)pyridin-3-yl)pyrimidine-4-carboxamide]",0.3 nM,14 nM,0.28 nM,–
"O=C(Nc1cnccc1-c1ccccc1)c1ccnc(Nc2cc(F)c(Cl)cc2F)n1 [Example 32, 2-((4-Chloro-2,5-difluorophenyl)amino)-N-(4-phenylpyridin-3-yl)pyrimidine-4-carboxamide]",0.48 nM,100 nM,0.56 nM,–
"O=C(Nc1cnccc1OCC(F)(F)F)c1ccnc(NCc2ccccc2)n1 [Example 128, 2-(Benzylamino)-N-(4-(2,2,2-trifluoroethoxy)pyridin-3-yl)pyrimidine-4-carboxamide]",1.2 nM,210 nM,1.3 nM,–
"O=C(Nc1cnccc1-c1ccc(F)cc1)c1ccnc(NC2CCCCC2)n1 [Example 150, 2-(Cyclohexylamino)-N-(4-(4-fluorophenyl)pyridin-3-yl)pyrimidine-4-carboxamide]",0.66 nM,120 nM,0.57 nM,–
"O=C(Nc1cncnc1OCC(F)(F)F)c1ccnc(Nc2ccc(Cl)cc2F)n1 [Example 71, 2-((4-Chloro-2-fluorophenyl)amino)-N-(4-(2,2,2-trifluoroethoxy)pyrimidin-5-yl)pyrimidine-4-carboxamide]",8 nM,1000 nM,4.2 nM,–
"O=C(Nc1cnccc1OCC(F)(F)F)c1ccnc(Nc2ccc(F)cc2)n1 [Example 55, 2-((4-Fluorophenyl)amino)-N-(4-(2,2,2-trifluoroethoxy)pyridin-3-yl)pyrimidine-4-carboxamide]",0.26 nM,7.6 nM,0.16 nM,–
"Cn1nc(C2CC2)cc1Nc1nccc(C(=O)Nc2cnccc2-c2ccccc2)n1 [Example 97, 2-((3-Cyclopropyl-1-methyl-1H-pyrazol-5-yl)amino)-N-(4-phenylpyridin-3-yl)pyrimidine-4-carboxamide]",29 nM,870 nM,30 nM,–
"CCO[C@H]1COC[C@@H]1Nc1nccc(C(=O)Nc2cnccc2-c2ccccc2)n1 [Example 92, 2-(((3S,4R)-4-Ethoxytetrahydrofuran-3-yl)amino)-N-(4-phenylpyridin-3-yl)pyrimidine-4-carboxamide]",3.8 nM,250 nM,2.2 nM,–
"Cc1cc(N2CCC(F)(F)CC2)c(NC(=O)c2ccnc(Nc3ccc(Cl)cc3)n2)cn1 [Example 182, 2-((4-Chlorophenyl)amino)-N-(4-(4,4-difluoropiperidin-1-yl)-6-methylpyridin-3-yl)pyrimidine-4-carboxamide]",2.5 nM,220 nM,1 nM,–
"O=C(Nc1cnccc1-c1ccccc1)c1ccnc(Nc2ccc(C(F)(F)F)cc2F)n1 [Example 25, 2-((2-Fluoro-4-(trifluoromethyl)phenyl)amino)-N-(4-phenylpyridin-3-yl)pyrimidine-4-carboxamide]",–,4800 nM,2.2 nM,3.3 nM
"CCOc1ccc(Nc2nccc(C(=O)Nc3cnccc3-c3ccccc3)n2)cc1 [Example 7, 2-((4-Ethoxyphenyl)amino)-N-(4-phenylpyridin-3-yl)pyrimidine-4-carboxamide]",16 nM,140 nM,1.1 nM,–
"O=C(Nc1cnccc1-c1ccccc1)c1ccnc(Nc2ccc(C(F)(F)F)nc2)n1 [Example 39, N-(4-Phenylpyridin-3-yl)-2-((6-(trifluoromethyl)pyridin-3-yl)amino)pyrimidine-4-carboxamide]",3.4 nM,470 nM,1.5 nM,–
"O=C(Nc1cncnc1OCC(F)(F)F)c1ccnc(Nc2ccc(OC(F)(F)F)cc2)n1 [Example 69, N-(4-(2,2,2-Trifluoroethoxy)pyrimidin-5-yl)-2-((4-(trifluoromethoxy)phenyl)amino)pyrimidine-4-carboxamide]",0.56 nM,160 nM,0.6 nM,–

Compound,IC50 (GSK3β; [1]),IC50 (pTau),IC50 (GSK3α),IC50 (GSK3β)
"O=C(Nc1cnccc1OCC(F)(F)F)c1ccnc(Nc2ccc(F)nc2)n1 [Example 84, 2-((6-Fluoropyridin-3-yl)amino)-N-(4-(2,2,2-trifluoroethoxy)pyridin-3-yl)pyrimidine-4-carboxamide]",0.24 nM,4.8 nM,0.11 nM,–
"O=C(Nc1cnccc1-c1ccccc1)c1ccnc(Nc2cc(OC(F)F)c(Cl)cc2F)n1 [Example 33, 2-((4-Chloro-5-(difluoromethoxy)-2-fluorophenyl)amino)-N-(4-phenylpyridin-3-yl)pyrimidine-4-carboxamide]",2.3 nM,700 nM,2.1 nM,–
"O=C(Nc1cnccc1-c1ccccc1)c1ccnc(Nc2ccc(OC(F)F)nc2)n1 [Example 38, 2-((6-(Difluoromethoxy)pyridin-3-yl)amino)-N-(4-phenylpyridin-3-yl)pyrimidine-4-carboxamide]",3.1 nM,130 nM,1.1 nM,–
"CC(C)C(C)Nc1nccc(C(=O)Nc2cnccc2OCC(F)(F)F)n1 (stereo not drawn) [Example 125, 2-((3-Methylbutan-2-yl)amino)-N-(4-(2,2,2-trifluoroethoxy)pyridin-3-yl)pyrimidine-4-carboxamide]",1.1 nM,55 nM,0.84 nM,–
"CC(Nc1nccc(C(=O)Nc2cnccc2OCC(F)(F)F)n1)C(C)(C)C (stereo not drawn) [Example 126, 2-((3,3-Dimethylbutan-2-yl)amino)-N-(4-(2,2,2-trifluoroethoxy)pyridin-3-yl)pyrimidine-4-carboxamide]",1.1 nM,110 nM,0.41 nM,–
"CC(C)(C)CNc1nccc(C(=O)Nc2cncnc2OCC(F)(F)F)n1 [Example 189, 2-(Neopentylamino)-N-(4-(2,2,2-trifluoroethoxy)pyrimidin-5-yl)pyrimidine-4-carboxamide]",1.43 nM,410 nM,0.8 nM,–
"Cc1ccc(Nc2nccc(C(=O)Nc3cnccc3OCC(F)(F)F)n2)cn1 [Example 83, 2-((6-Methylpyridin-3-yl)amino)-N-(4-(2,2,2-trifluoroethoxy)pyridin-3-yl)pyrimidine-4-carboxamide]",0.22 nM,5.1 nM,0.16 nM,–
"CC(C)OCCCNc1nccc(C(=O)Nc2cnccc2OCC(F)(F)F)n1 [Example 65, 2-((3-Isopropoxypropyl)amino)-N-(4-(2,2,2-trifluoroethoxy)pyridin-3-yl)pyrimidine-4-carboxamide]",2 nM,86 nM,1.4 nM,–
"O=C(Nc1cnccc1OCC(F)(F)F)c1ccnc(NC2CCOCC2)n1 [Example 124, 2-((Tetrahydro-2H-pyran-4-yl)amino)-N-(4-(2,2,2-trifluoroethoxy)pyridin-3-yl)pyrimidine-4-carboxamide]",–,68 nM,0.95 nM,0.99 nM
"Nc1nccc(C(=O)Nc2cnccc2N2CCC(F)(F)CC2)n1 [Example 2, 2-Amino-N-(4-(4,4-difluoropiperidin-1-yl)pyridin-3-yl)pyrimidine-4-carboxamide]",30 nM,1100 nM,18 nM,–
"O=C(Nc1cncc(-c2ccccc2F)c1)c1ccnc(Nc2ccc(F)nc2)n1 [Example 104, N-(5-(2-Fluorophenyl)pyridin-3-yl)-2-((6-fluoropyridin-3-yl)amino)pyrimidine-4-carboxamide]",4.8 nM,660 nM,2.1 nM,–
"Cc1nc(OC(F)F)ccc1Nc1nccc(C(=O)Nc2cnccc2-c2ccccc2)n1 [Example 40, 2-((6-(Difluoromethoxy)-2-methylpyridin-3-yl)amino)-N-(4-phenylpyridin-3-yl)pyrimidine-4-carboxamide]",22 nM,5200 nM,21 nM,–
"CCCC1(c2cc(Cl)ncc2NC(=O)c2ccnc(NC3CC3)n2)OCCO1 [Example 166, N-(6-Chloro-4-(2-propyl-1,3-dioxolan-2-yl)pyridin-3-yl)-2-(cyclopropylamino)pyrimidine-4-carboxamide]",0.73 nM,220 nM,1.7 nM,–
"O=C(Nc1cnccc1-c1ccccc1)c1ccnc(Nc2ccc(OC(F)(F)F)cc2)n1 [Example 12, N-(4-Phenylpyridin-3-yl)-2-((4-(trifluoromethoxy)phenyl)amino)pyrimidine-4-carboxamide]",1.9 nM,210 nM,0.9 nM,–
"O=C(Nc1cnccc1-c1ccccc1)c1ccnc(Nc2c(F)cc(Cl)cc2F)n1 [Example 30, 2-((4-Chloro-2,6-difluorophenyl)amino)-N-(4-phenylpyridin-3-yl)pyrimidine-4-carboxamide]",3.9 nM,350 nM,1.8 nM,–
"Cc1cc(Nc2nccc(C(=O)Nc3cnccc3-c3ccccc3)n2)sn1 [Example 95, 2-((3-Methylisothiazol-5-yl)amino)-N-(4-phenylpyridin-3-yl)pyrimidine-4-carboxamide]",5.7 nM,78 nM,0.7 nM,–
